Source: PMC7413254 (Nature Communications, 2020)
Like-named read-outs stand apart in the source and are kept apart here.

Key:
[1] = tested on: non-expressing oocytes; format: cell-based, Xenopus laevis; details: total [3H]CQ transport, mean ± SEM, SEM
Summary of the method: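 Oocytes (ten per treatment, ≥4 independent frogs/days) were preloaded by injecting VF-6 in 25 nL ND96 at pH 5.0, 5.5, 6.0 or 7.0, or Na^+-free choline buffer, then uptake run 1.5 h, 27.5 °C, ND96 pH 5.5 by default. Internal concentrations assumed ~400 nL oocyte volume.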

[2] = biological target: PfCRT^Ecu1110 (Plasmodium falciparum, UniProt Q9N623, A220S/I356L/K76T/N326D); assay: cell-based; format: cell-based; details: […]
Summary of the method: (§1)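 Transport measured in Xenopus oocytes expressing the transporters, 1.5 h at 27.5 °C in ND96 pH 5.5 unless noted. For trans-stimulation, VF-6 injected in 25 nL ND96 at pH 5.0–7.0 or Na^+-free (choline) buffer; intracellular levels based on ~400 nL oocyte volume. Ten oocytes per treatment, ≥4 experiments.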

[3] = biological target: T1, PfCRT^3D7 (Plasmodium falciparum, UniProt Q8IBZ9); assay: cell-based; format: cell-based
Summary of the method: as §1

[4] = biological target: T2, PfNT1 (Plasmodium falciparum, UniProt Q8IDM6); assay: cell-based; format: cell-based; details: for activity at 5000 µM: total [3H]CQ transport
T2 construct: expressed in transfected cells; host or cells: Xenopus laevis oocytes (stage V-VI), cRNA-injected
Summary of the method: as §1

[5] = biological target: PfCRT^Dd2 (Plasmodium falciparum, UniProt Q9N623, A220S/I356T/K76T/M74I/N326S/N75E/Q271E/R371I); assay: cell-based; format: cell-based; details: […]; for activity at 45000 µM: [test solute]i = 45 mM (30 mM for some solutes due to solubility)
Summary of the method: as §1

[6] = tested on: PfCRT; assay: Test of solutes as potential co-substrates for influx of VF-6 via PfCRT into the oocyte; format: cell-based, Plasmodium falciparum; parameters: key: X: Compounds that have been tested as potential co-substrates but are not required for influx of VF-6 via PfCRT into the oocyte; details: X = tested
[7] = biological target: T1, PfCRT^3D7; assay: cell-based; format: cell-based; details: total [3H]CQ transport; for inhibition at 500 µM: [test solute] = 0.5 mM; for inhibition at 1000 µM: [test solute] = 1 mM; for inhibition at 2000 µM: [test solute] = 2 mM
Summary of the method: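 Washed oocytes (ten per treatment) were exposed to label in pH 5.5 ND96 for 1.5 h at 27.5 °C. Buffer was then removed, cells rinsed in ice-cold ND96, lysed in SDS and counted.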

[8] = PfCRT3D7 oocytes, normalised to the oocyte type control, read-out: Uptake of [3H]CQ (% PfCRT3D7 control), cis-inhibition
[9] = mean ± SEM, SEM, read-out: Uptake of [3H]CQ (% PfCRTDd2 control), cis-inhibition, PfCRT3D7

PfCRT^Ecu1110, sequence (Q9N623 whole entry A220S/I356L/K76T/N326D): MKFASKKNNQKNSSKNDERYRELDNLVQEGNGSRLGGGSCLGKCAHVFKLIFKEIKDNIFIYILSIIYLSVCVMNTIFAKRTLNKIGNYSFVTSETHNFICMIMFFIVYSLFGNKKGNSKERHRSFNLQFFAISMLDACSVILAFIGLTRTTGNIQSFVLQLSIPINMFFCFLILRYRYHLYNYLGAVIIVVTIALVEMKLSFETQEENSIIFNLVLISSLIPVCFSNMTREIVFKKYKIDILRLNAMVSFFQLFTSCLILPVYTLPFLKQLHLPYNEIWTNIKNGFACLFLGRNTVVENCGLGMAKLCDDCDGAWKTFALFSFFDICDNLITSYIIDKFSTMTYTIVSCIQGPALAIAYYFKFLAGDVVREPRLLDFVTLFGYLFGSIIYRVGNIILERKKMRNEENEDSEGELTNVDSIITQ
T1 sequence (Q8IBZ9 59-398): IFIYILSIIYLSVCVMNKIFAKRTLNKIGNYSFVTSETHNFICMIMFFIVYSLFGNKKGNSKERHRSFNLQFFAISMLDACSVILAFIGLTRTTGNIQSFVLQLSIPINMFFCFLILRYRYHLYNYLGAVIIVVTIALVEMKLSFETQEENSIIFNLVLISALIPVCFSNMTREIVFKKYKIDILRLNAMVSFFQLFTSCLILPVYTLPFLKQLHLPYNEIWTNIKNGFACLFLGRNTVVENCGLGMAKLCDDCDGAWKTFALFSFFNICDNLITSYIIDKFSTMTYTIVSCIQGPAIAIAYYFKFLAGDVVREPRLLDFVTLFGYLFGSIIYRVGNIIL
T2 sequence (Q8IDM6 whole entry): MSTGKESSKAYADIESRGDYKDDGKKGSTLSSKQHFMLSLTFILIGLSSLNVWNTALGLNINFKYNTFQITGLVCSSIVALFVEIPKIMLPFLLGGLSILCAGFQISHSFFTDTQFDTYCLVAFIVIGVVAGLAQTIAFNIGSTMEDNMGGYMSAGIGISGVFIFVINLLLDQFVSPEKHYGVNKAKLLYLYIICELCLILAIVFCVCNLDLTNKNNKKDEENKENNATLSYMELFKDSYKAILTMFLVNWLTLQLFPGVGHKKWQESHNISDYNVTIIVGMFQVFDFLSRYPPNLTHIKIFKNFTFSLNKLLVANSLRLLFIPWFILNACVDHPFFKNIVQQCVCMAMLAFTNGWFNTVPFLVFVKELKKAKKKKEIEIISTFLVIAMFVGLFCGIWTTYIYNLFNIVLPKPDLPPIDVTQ
PfCRT^Dd2, sequence (Q9N623 whole entry A220S/I356T/K76T/M74I/N326S/N75E/Q271E/R371I): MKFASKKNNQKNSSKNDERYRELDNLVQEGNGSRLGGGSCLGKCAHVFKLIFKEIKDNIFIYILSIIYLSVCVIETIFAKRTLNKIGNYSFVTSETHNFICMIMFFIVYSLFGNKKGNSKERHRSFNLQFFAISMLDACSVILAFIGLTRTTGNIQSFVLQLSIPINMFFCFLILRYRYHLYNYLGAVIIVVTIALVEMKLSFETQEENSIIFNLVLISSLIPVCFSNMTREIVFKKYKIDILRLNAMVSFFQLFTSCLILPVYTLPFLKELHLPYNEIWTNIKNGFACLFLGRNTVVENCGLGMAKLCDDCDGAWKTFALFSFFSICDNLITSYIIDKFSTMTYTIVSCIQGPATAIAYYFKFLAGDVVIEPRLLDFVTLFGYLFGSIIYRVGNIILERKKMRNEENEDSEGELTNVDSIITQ

How did the “Uptake of [3H]CQ (% PfCRTDd2 control), trans-stimulation, non-expressing oocytes” value ([1]; [test solute]i = 5 mM (intracellular)) turn out when `N=C(N)NCCC[C@H](N)C(=O)O` [L-arginine] was run?
Its value is 2.7 ± 0.07 % PfCRTDd2 control.

What about the “Uptake of [3H]CQ (% PfCRTDd2 control), trans-stimulation, non-expressing oocytes” value ([1]; [test solute]i = 45 mM (intracellular; 30 mM for some solutes due to solubility)) of the same compound?
The value was 3.0 ± 0.01 % PfCRTDd2 control.

And the activity at 5000 µM ([2]; pH 5.5, read-out: PfCRT-mediated [3H]CQ transport, trans-stimulation (% PfCRTEcu1110 control), [test solute]i = 5 mM (intracellular), PfCRTEcu1110 oocytes, normalised to oocyte type control)?
The activity at 5000 µM was 98 ± 4.1%.

What about the activity at 5000 µM ([2]; pH 5.5, read-out: Uptake of [3H]CQ (% PfCRTEcu1110 control), trans-stimulation, PfCRTEcu1110 oocytes, [test solute]i = 5 mM, total [3H]CQ transport, normalised to the oocyte type control) of the same compound?
The activity at 5000 µM was 100 ± 3.7%.

And the activity at 45000 µM ([2]; pH 5.5, read-out: Uptake of [3H]CQ (% PfCRTEcu1110 control), trans-stimulation, PfCRTEcu1110 oocytes, [test solute]i = 45 mM (30 mM for some solutes due to solubility), total [3H]CQ transport, normalised to the oocyte type control)?
The activity at 45000 µM was 99 ± 2.5%.

What about the activity at 5000 µM ([2]; read-out: Uptake of [3H]CQ (% PfCRTDd2 control), trans-stimulation, PfCRTEcu1110, total [3H]CQ transport, [test solute]i = 5 mM (intracellular), mean ± SEM, SEM) of the same compound?
The activity at 5000 µM was 36 ± 2.1%.

What about the activity at 45000 µM ([2]; read-out: Uptake of [3H]CQ (% PfCRTDd2 control), trans-stimulation, PfCRTEcu1110, total [3H]CQ transport, [test solute]i = 45 mM (intracellular; 30 mM for some solutes due to solubility), mean ± SEM, SEM) of the same compound?
The activity at 45000 µM was 35 ± 2.2%.

And the activity at 5000 µM ([3]; PfCRT3D7 oocytes, [test solute]i = 5 mM, total [3H]CQ transport, normalised to the oocyte type control, read-out: Uptake of [3H]CQ (% PfCRT3D7 control), trans-stimulation)?
Its activity at 5000 µM is 97 ± 2.2%.

And the “[3H]CQ transport (% PfCRT3D7 control), trans-stimulation, PfCRT3D7” value ([3]; SEM)?
Its value is 0.3 ± 0.02 % PfCRT3D7 control.

And the activity at 5000 µM ([3]; [test solute]i = 5 mM (intracellular), PfCRT3D7 oocytes, normalised to oocyte type control, read-out: PfCRT-mediated [3H]CQ transport, trans-stimulation (% PfCRT3D7 control))?
Its activity at 5000 µM is 96 ± 3.7%.

What about the activity at 45000 µM ([3]; SEM, read-out: Uptake of [3H]CQ (% PfCRTDd2 control), trans-stimulation, PfCRT3D7) of the same compound?
The activity at 45000 µM was 3.3 ± 0.02%.

What about the activity at 45000 µM ([3]; read-out: PfCRT-mediated [3H]CQ transport, trans-stimulation (% PfCRT3D7 control)) of the same compound?
The activity at 45000 µM was 96 ± 3.1%.

And the activity at 45000 µM ([3]; read-out: Uptake of [3H]CQ (% PfCRT3D7 control), trans-stimulation)?
Its activity at 45000 µM is 98 ± 4.4%.

What about the activity at 5000 µM ([3]; total [3H]CQ transport, [test solute]i = 5 mM (intracellular), mean ± SEM, SEM, read-out: Uptake of [3H]CQ (% PfCRTDd2 control), trans-stimulation, PfCRT3D7) of the same compound?
The activity at 5000 µM was 3.3 ± 0.06%.

What about the activity at 5000 µM ([4]; PfNT1 oocytes, [test solute]i = 5 mM, normalised to the oocyte type control, read-out: Uptake of [3H]CQ (% PfNT1 control), trans-stimulation) of the same compound?
Its activity at 5000 µM is 98 ± 3.8%.

What about the activity at 45000 µM ([4]; SEM, read-out: Uptake of [3H]CQ (% PfCRTDd2 control), trans-stimulation, PfNT1) of the same compound?
Its activity at 45000 µM is 3.1 ± 0.07%.

What about the activity at 45000 µM ([4]; read-out: Uptake of [3H]CQ (% PfNT1 control), trans-stimulation) of the same compound?
The activity at 45000 µM was 98 ± 3.2%.

What about the activity at 5000 µM ([4]; [test solute]i = 5 mM (intracellular), mean ± SEM, SEM, read-out: Uptake of [3H]CQ (% PfCRTDd2 control), trans-stimulation, PfNT1) of the same compound?
Its activity at 5000 µM is 3.3 ± 0.03%.

And the activity at 5000 µM ([5]; pH 5.5, read-out: PfCRT-mediated [3H]CQ transport, trans-stimulation (% PfCRTDd2 control), [test solute]i = 5 mM (intracellular), PfCRTDd2 oocytes, normalised to oocyte type control)?
The activity at 5000 µM was 98 ± 2.1%.

What about the activity at 5000 µM ([5]; pH 5.5, read-out: Uptake of [3H]CQ (% PfCRTDd2 control), trans-stimulation, PfCRTDd2, total [3H]CQ transport, [test solute]i = 5 mM (intracellular), mean ± SEM, SEM) of the same compound?
Its activity at 5000 µM is 100 ± 3.5%.

And the activity at 5000 µM ([5]; pH 5.5, read-out: Uptake of [3H]CQ (% PfCRTDd2 control), trans-stimulation, PfCRTDd2 oocytes, [test solute]i = 5 mM, total [3H]CQ transport, normalised to the oocyte type control)?
The activity at 5000 µM was 100 ± 3.5%.

What about the activity at 45000 µM ([5]; pH 5.5, read-out: Uptake of [3H]CQ (% PfCRTDd2 control), trans-stimulation, PfCRTDd2 oocytes, total [3H]CQ transport, normalised to the oocyte type control) of the same compound?
The activity at 45000 µM was 97 ± 4.2%.

And the activity at 5000 µM ([5]; pH 5.5, read-out: [3H]CQ transport (% PfCRTDd2 control), trans-stimulation, PfCRTDd2, trans-stimulation, [test solute]i = 5 mM (injected), PfCRT-mediated component (background subtracted), mean ± SEM, SEM)?
Its activity at 5000 µM is 98 ± 2.1%.

And the activity at 45000 µM ([5]; pH 5.5, read-out: [3H]CQ transport (% PfCRTDd2 control), trans-stimulation, PfCRTDd2, trans-stimulation, PfCRT-mediated component (background subtracted), mean ± SEM, SEM)?
Its activity at 45000 µM is 95 ± 2.5%.

And the “Tested as potential co-substrate but not required for influx of VF-6 via PfCRT into the oocyte” value [6]?
The value was “X”.

What about the inhibition at 500 µM [7, 8] of the same compound?
The inhibition at 500 µM was 100 ± 4.2%.

What about the inhibition at 1000 µM [7, 8] of the same compound?
Its inhibition at 1000 µM is 99 ± 5.7%.

And the inhibition at 2000 µM [7, 8]?
Its inhibition at 2000 µM is 100 ± 5.3%.

What about the inhibition at 500 µM [7, 9] of the same compound?
The inhibition at 500 µM was 2.4 ± 0.07%.

What about the inhibition at 1000 µM [7, 9] of the same compound?
The inhibition at 1000 µM was 2.9 ± 0.05%.

What about the inhibition at 2000 µM [7, 9] of the same compound?
The inhibition at 2000 µM was 3.3 ± 0.03%.
